According to patent publication US9012419B2, “Methods and compositions related to eosinophil regulation” (University of Utah Research Foundation, priority 2006, dated 2015):
“And” between values parts separate entries of the source, which are not always exact repeats. Identical values can stand only once. Counter-ions that a name gives are not always drawn. Like-named read-outs stand apart in the source and are kept apart here.

B1: mepolizumab: anti-IL-5 drug (antibody, chains of the INN, looked up, V domains shown)
VH: QVTLRESGPALVKPTQTLTLTCTVSGFSLTSYSVHWVRQPPGKGLEWLGVIWASGGTDYNSALMSRLSISKDTSRNQVVLTMTNMDPVDTATYYCARDPPSSLLRLDYWGRGTPVTVSS
VL: DIVMTQSPDSLAVSLGERATINCKSSQSLLNSGNQKNYLAWYQQKPGQPPKLLIYGASTRESGVPDRFSGSGSGTDFTLTISSLQAEDVAVYYCQNVHSFPFTFGGGTKLEIK

Legend:
[1] = system: IL-5 stimulated TF-1 cells; experiment: TF-1 cell proliferation assay, IL-5 stimulated cultures; type: cell-based, human; conditions: for Di: Di=EPO IC-50/IL5 IC-50; for IL-5 IC-50 compared with lidocaine: in words
Description: (§1) Controls and test compounds were assayed in serial dilutions, ranging from 1 mM to 0.5 uM, against TF-1 cell proliferation. Compounds were solublized in DMSO in 0.2M solutions followed by serial dilutions with the culture media.
(§2) Each dilution of the compounds was tested in triplicate in a 96 well, flat bottom tissue culture plate with 10,000 TF-1 cells per well for their abilities to inhibit IL-5 and/or EPO stimulated cultures. Wells without cells were used for the background signals. Both IL-5 and EPO stimulated cell cultures were tested in assays performed on the same day. Cultures were incubated for 72 hours in a 37° C. humidified incubator. At the end of the incubation, CellTiter AQueous One Solution (Promega, Madison, Wis.) was added for 1 to 3 hours, depending on the rate of color change. Following sufficient color change, the plates were read on a spectrophotometer (SpectraMax 190, Molecular Devices) at 490 nm.
(§3) IC-50 and […] values were calculated using the software SOFTmax Pro (Molecular Devices, Sunnyvale, Calif.).
(§4) Compounds were screened by inspecting the IC-50 values of the drug candidate on the proliferation assay. […] Potencies of the investigated compounds in inhibiting TF-1 cell proliferation were evaluated by comparing their IC-50 values relative to lidocaine. Due to the ability of TF-1 cells to be stimulated by a variety of cytokines, specificity can be evaluated by comparing IL-5 and EPO stimulated cell cultures IC-50 values. Specificity or differential inhibition (Di) values can be calculated for the investigated compounds using equation 1. Di=EPO IC-50/IL5 IC-50 (equation 1)

[2] = system: EPO stimulated TF-1 cells; experiment: TF-1 cell proliferation assay, EPO stimulated cultures; type: cell-based; conditions: Homo sapiens
Description: as §1, §2, §3, §4

[3] = nebulized, Hunt, cited from earlier work
IL-5 = target: T1, IL-5 (Homo sapiens, UniProt P05113); conditions: patients with mild asthma; Leckie, 2000; cited from earlier work
T1 construct: Administration of the anti-IL-5 drug, mepolizumab, to patients with mild asthma reduced blood and sputum eosinophils; host or cells: endogenous IL-5 in human patients with mild asthma (in vivo)
T1 sequence (P05113 20-134): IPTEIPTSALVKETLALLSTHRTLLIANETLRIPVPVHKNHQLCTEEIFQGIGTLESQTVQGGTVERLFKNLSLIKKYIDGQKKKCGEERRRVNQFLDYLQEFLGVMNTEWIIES

[4] = Homo sapiens, TF-1, 72 h, Table 6, TF-1 cells with IL-5 (5 ng/mL), 72 hours, read-out: IL-5 IC-50
[5] = Homo sapiens, TF-1, 72 h, Table 7, TF-1 cells with IL-5, 72 hours, read-out: IL-5 IC-50
[6] = Homo sapiens, TF-1, text, IL-5 stimulated TF-1 cells, read-out: IL-5 IC-50
[7] = Table 7, TF-1 cells with EPO (2 units/mL), 72 hours, read-out: EPO IC-50

Molecule | IC50 [1, 4] | IC50 [1, 5] | Di ([1]; Table 7) | IC50 [2, 7] | further results
CCN(CC)CC(=O)Nc1c(C)cccc1C [Compound 1, Lidocaine, reference compound] | 147 µM | 147 µM | 1.361 | 200 µM | IC50 ([1]; Homo sapiens, TF-1, text b313, TF-1 cell proliferation, read-out: IC-50 (fifty percent growth inhibition)): 147 µM; IC50 [1, 6]: 140 µM; prednisolone-dependent patients able to eliminate or significantly reduce steroid usage [3]; 1996: 17 out of 20; blood eosinophil levels ([3]; placebo controlled study, mild to moderate asthma, 2004): decreased
C[C@@H]1C[C@H]2[C@@H]3CCC4=CC(=O)C=C[C@]4(C)[C@@]3(F)[C@@H](O)C[C@]2(C)[C@@]1(O)C(=O)CO [Compound 2, Dexamethasone, reference compound] | 9 µM | 7 µM | 5.136 | 38 µM | Di value ([1]; EPO IC-50/IL5 IC-50): 5.136 and 5.14; IC50 [1, 6]: 4 µM
CN1CCC(=C2c3ccccc3CC(=O)c3sccc32)CC1 [Compound 3, Ketotifen fumarate, reference compound] | 9 µM | 9 µM | 1.000 | 9 µM | IC50 [1, 6]: 9 µM
Nc1ccc(C(=O)NCc2cccnc2)cc1 [Compound 4, 4-Amino-N-pyridin-3-yl-methyl-benzamide] | 1.3 µM | 1.3 µM | 1.471 | 1.9 µM | IC50 [1, 6]: 1.3 µM
O=C(CN1CCN(c2ncccn2)CC1)Nc1ccc(F)cc1F [Compound 5, N-(2,4-difluorophenyl)-2-(4-pyrimidin-2-ylpiperazinyl)ethanamide] | 5 µM | – | – | – | IC50 [1, 6]: 5 µM
CC(C)(C)OC(=O)Nc1ccc(C(=O)NCC(=O)O)cc1 [Compound 6, Boc-4-aminohippuric Acid] | 19 µM | – | – | – | –
CC1COc2c(F)c(F)cc3c(=O)c(C(=O)O)cn1c23 (stereo not drawn) [Compound 7, 9,10-Difluoro-2,3-dihydro-3-methyl-7-oxo-7H-pyrido[1,2,3-DE]-1,4-benzoxazine-6-carboxylic acid] | 20 µM | – | – | – | –
CN1CCOc2cc(Br)ccc21 [Compound 8, 7-Bromo-4-methyl-3,4-dihydro-2H-1,4-benzoxazine] | 24 µM | – | – | – | –
Cc1cccc(C)c1NC(=O)c1ccnc2ccccc12 [Compound 9, N-(2,6-dimethylphenyl)quinoline-4-carboxamide] | 24 µM | – | – | – | IL-5 IC-50 compared with lidocaine [1]: lower than lidocaine's
O=C(O)COC1Cc2ccccc2CN1 (stereo not drawn) [Compound 10, 3-Carboxymethoxy-1,2,3,4-Tetrahydroisoquinol] | 26 µM | – | – | – | –
C[C@@H](O)[C@H](NC(=O)c1ccccc1)C(=O)O [Compound 11, N-Benzoyl-L-Threonine] | 30 µM | – | – | – | –
O=C(O)C1CNc2ccccc2O1 (stereo not drawn) [Compound 12, 3,4-Dihydro-2H-1,4-Benzoxazine-2-Carboxylic Acid] | 38 µM | – | – | – | –
CCCCOc1cc(C(=O)NCCN(CC)CC)c2ccccc2n1 [Compound 13, Dibucaine Hydrochloride, reference compound] | 48 µM | – | – | – | –
Cc1cccc(C)c1NC(=O)C(C)N (stereo not drawn) [Compound 14, Tocainide HCL, reference compound] | 49 µM | – | – | – | –
CCCCCC(=O)Nc1c(C)cccc1C [Compound 15, N-(2,6-dimethylphenyl)hexanamide] | 62 µM | 62 µM | 2.210 | 137 µM | IL-5 IC-50 compared with lidocaine [1]: lower than lidocaine's
Nc1ccc2c(c1)OCCO2 [Compound 16, 3,4-Ethylenedioxyaniline] | 69 µM | 69 µM | 1.971 | 136 µM | –
CCN(CC)CCOC(=O)c1ccc(N)cc1 [Compound 17, Procaine, reference compound] | 71 µM | 71 µM | 1.535 | 109 µM | –
Cc1cccc(C)c1NC(=O)C(C)(C)C [Compound 18, N-(2,6-dimethylphenyl)pivalamide] | 79 µM | – | – | – | IL-5 IC-50 compared with lidocaine [1]: lower than lidocaine's
CCN(CC)CC(=O)Nc1c(C)cccc1C.Cl [Compound 19, Lidocaine HCL, reference compound] | – | – | 3.286 | – | IC50 ([1]; Homo sapiens, TF-1, 72 h, read-out: IL-5 IC-50): 84 µM; IC50 ([2]; TF-1, 72 h, read-out: EPO IC-50, Table 7, TF-1 cells with EPO (2 units/mL)): 276 µM
Cc1ccccc1C(=O)NCc1cccnc1 [Compound 20, 2-methyl-N-(3-pyridinylmethyl)benzamide] | 90 µM | 90 µM | 1.700 | 153 µM | –
CN1CCOc2cc(C(=O)O)ccc21 [Compound 21, 4-methyl-3,4-dihydro 2H-1,4-benoxazine 7 carboxylic acid] | 92 µM | 91.8 µM | 1.412 | 130 µM | –
Cc1cccc(C)c1NC(=O)Cc1ccccc1 [Compound 22, N-(2,6-dimethylphenyl)-2-phenylacetamide] | 96 µM | 95.5 µM | 1.351 | 129 µM | IL-5 IC-50 compared with lidocaine [1]: lower than lidocaine's
c1ccc2c(c1)OCC(C1=NCCN1)O2 (stereo not drawn) [Compound 23, Idazoxan Hydrochloride, reference compound] | 97 µM | – | – | – | –
CCCCOc1cc(C(=O)OCCN(CC)CC)ccc1N [Compound 24, Benoxinate, reference compound] | 98 µM | – | – | – | –
CCCCN1CCCCC1C(=O)Nc1c(C)cccc1C (stereo not drawn) [Compound 25, Bupivicaine Hydrochloride, reference compound] | 107 µM | – | – | – | –
Cc1cccc(C)c1NC(=O)CCC(C)C [Compound 26, 4-methyl-N-(2,6-dimethylphenyl)-pentanamide] | 119 µM | – | – | – | IL-5 IC-50 compared with lidocaine [1]: lower than lidocaine's
CC[N+](CC)(CC(=O)Nc1c(C)cccc1C)Cc1ccccc1 [Compound 28, Denatonium Saccharide] | 136 µM | – | – | – | –
Disopyramide [Compound 27, reference compound] | – | – | – | – | IC50 ([1]; Table 6, TF-1 cells with IL-5 (5 ng/mL), 72 hours, read-out: IL-5 IC-50): 129 µM
B1 | – | – | – | – | blood and sputum eosinophils (IL-5): reduced
